Data as given in PubChem BioAssay AID248 (DTP/NCI, 2004).
Several values for one entry are separate records, joined by “and”; a condition that tells them apart may be missing. Equal values may be shown once. Toxic doses and inconclusive results are not listed. No stated cut-off is given here; in the data, active means T/C of 150% or more; inactive means T/C below 125%.

System: L1210 leukemia ip in BDF1 mice, survival T/C
Assay: NCI In Vivo Anticancer Drug Screen. Data for tumor model L1210 Leukemia (intraperitoneal) in B6D2F1 (BDF1) mice
Conditions: endpoint: mean survival time, higher = longer survival
In short: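 Each compound was tested against a transplantable tumor grown in mice. The endpoint was survival, with treated animals benchmarked against vehicle controls as a simple ratio.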

[1] = dose: 100.0 mg/kg/injection, schedule: Q01DX001 (ip), vehicle: saline
[2] = dose: 200.0 mg/kg/injection, schedule: Q04DX003 (ip), vehicle: Klucel (hydroxypropylcellulose) (HPC)
[3] = dose: 400.0 mg/kg/injection, schedule: Q04DX003 (ip), vehicle: Klucel (hydroxypropylcellulose) (HPC)
[4] = dose: 100.0 mg/kg/injection, schedule: Q01DX009 (ip), vehicle: saline with Tween-80
[5] = dose: 200.0 mg/kg/injection, schedule: Q01DX009 (ip), vehicle: saline with Tween-80
[6] = dose: 400.0 mg/kg/injection, schedule: Q01DX009 (ip), vehicle: saline with Tween-80
[7] = dose: 100.0 mg/kg/injection, schedule: Q01DX009 (ip), vehicle: Klucel (hydroxypropylcellulose) (HPC)
[8] = dose: 200.0 mg/kg/injection, schedule: Q01DX009 (ip), vehicle: Klucel (hydroxypropylcellulose) (HPC)
[9] = dose: 400.0 mg/kg/injection, schedule: Q01DX009 (ip), vehicle: Klucel (hydroxypropylcellulose) (HPC)
[10] = dose: 200.0 mg/kg/injection, schedule: Q01DX001 (ip), vehicle: saline
[11] = dose: 100.0 mg/kg/injection, schedule: Q04DX002 (ip), vehicle: Klucel (hydroxypropylcellulose) (HPC)

Measured: T/C

C1CCN(CN2CCCC2)C1
inactive: dose: 25.0 mg/kg/injection, schedule: Q01DX001 (ip), vehicle: saline 96 % of control | dose: 25.0 mg/kg/injection, schedule: Q01DX009 (ip), vehicle: saline 92 % of control | dose: 25.0 mg/kg/injection, schedule: Q04DX003 (ip), vehicle: saline 98 % of control | dose: 50.0 mg/kg/injection, schedule: Q01DX001 (ip), vehicle: saline 94 % of control | dose: 50.0 mg/kg/injection, schedule: Q01DX009 (ip), vehicle: saline 92 % of control | dose: 50.0 mg/kg/injection, schedule: Q04DX003 (ip), vehicle: saline 105 % of control | [1] 97 % of control and 88 % of control | dose: 100.0 mg/kg/injection, schedule: Q04DX003 (ip), vehicle: saline 88 % of control

CC(=O)C1=CC[C@H]2[C@@H]3CCC4=CC(=O)CC[C@]4(C)[C@H]3C(=O)C[C@]12C
inactive: dose: 50.0 mg/kg/injection, schedule: Q01DX Z (sc), vehicle: steriod suspending solution 102 % of control | dose: 250.0 mg/kg/injection, schedule: Q01DX Z (sc), vehicle: steriod suspending solution 101 % of control | dose: 500.0 mg/kg/injection, schedule: Q01DX Z (sc), vehicle: steriod suspending solution 102 % of control

CN(C)S(=O)(=O)/C=C/c1ccccc1
inactive: [2] 95 % of control | [3] 109 % of control

COC(=O)c1ccc(SSc2ccc(C(=O)OC)cc2[N+](=O)[O-])c([N+](=O)[O-])c1
inactive: [4] 103 % of control | [5] 102 % of control | [6] 92 % of control

O=C(Nc1ccccc1)c1ccc([N+](=O)[O-])cc1Cl
inactive: dose: 100.0 mg/kg/injection, schedule: Q04DX003 (ip), vehicle: Klucel (hydroxypropylcellulose) (HPC) 100 % of control | [2] 95 % of control | [3] 90 % of control

O=C(Nc1ccc(Cl)cc1[N+](=O)[O-])c1ccc2ccccc2c1O
inactive: [7] 101 % of control | [8] 111 % of control | [9] 103 % of control

O=C1CCN(CCN2CCC(=O)NC2=S)C(=S)N1
inactive: dose: 100.0 mg/kg/injection, schedule: Q04DX002 (ip), vehicle: gum acacia 94 % of control | dose: 200.0 mg/kg/injection, schedule: Q04DX002 (ip), vehicle: gum acacia 91 % of control | dose: 400.0 mg/kg/injection, schedule: Q04DX002 (ip), vehicle: gum acacia 97 % of control

O=C(O)/C=C/c1ccc(/C=C/C(=O)O)cc1
inactive: [4] 95 % of control | dose: 100.0 mg/kg/injection, schedule: Q04DX003 (ip), vehicle: saline with Tween-80 98 % of control | [5] 88 % of control | dose: 200.0 mg/kg/injection, schedule: Q04DX003 (ip), vehicle: saline with Tween-80 96 % of control | [6] 103 % of control | dose: 400.0 mg/kg/injection, schedule: Q04DX003 (ip), vehicle: saline with Tween-80 95 % of control

CC(Oc1nc2c(c(=O)n(C)c(=O)n2C)n1C)C1CCCC1 (centres undefined)
inactive: dose: 50.0 mg/kg/injection, schedule: Q01DX001 (ip), vehicle: other 103 % of control | dose: 100.0 mg/kg/injection, schedule: Q01DX001 (ip), vehicle: other 100 % of control

Nc1nc2c(=O)[nH]c(=O)[nH]c2n1C1OC(CO)C(O)C1O (centres undefined)
inactive: [1] 102 % of control | [10] 111 % of control

O=C1C=C(O)C2C3C=CC(CC3)C12 (centres undefined)
inactive: [11] 106 % of control | dose: 200.0 mg/kg/injection, schedule: Q04DX002 (ip), vehicle: Klucel (hydroxypropylcellulose) (HPC) 106 % of control | dose: 400.0 mg/kg/injection, schedule: Q04DX002 (ip), vehicle: Klucel (hydroxypropylcellulose) (HPC) 92 % of control

NC(Cc1cc(I)c(Oc2ccc(O)c(I)c2)c(I)c1)C(=O)O (centres undefined)
inactive: dose: 25.0 micrograms/kg/injection, schedule: Q01DX Z (ip), vehicle: saline 86 % of control | dose: 50.0 micrograms/kg/injection, schedule: Q01DX Z (ip), vehicle: saline 92 % of control | dose: 100.0 micrograms/kg/injection, schedule: Q01DX Z (ip), vehicle: saline 101 % of control | dose: 200.0 micrograms/kg/injection, schedule: Q01DX Z (ip), vehicle: saline 89 % of control

Nc1nc2ncc(CNc3ccc(C(=O)NC(CCC(=O)O)C(=O)O)nc3)nc2c(=O)[nH]1 (centres undefined)
inactive: dose: 0.75 mg/kg/injection, schedule: Q01DX009 (ip), vehicle: alkali diluted with saline 105 % of control | dose: 1.5 mg/kg/injection, schedule: Q01DX009 (ip), vehicle: alkali diluted with saline 102 % of control | dose: 3.0 mg/kg/injection, schedule: Q01DX009 (ip), vehicle: alkali diluted with saline 111 % of control | dose: 6.0 mg/kg/injection, schedule: Q01DX009 (ip), vehicle: alkali diluted with saline 102 % of control | dose: 12.0 mg/kg/injection, schedule: Q01DX009 (ip), vehicle: alkali diluted with saline 100 % of control | dose: 18.0 mg/kg/injection, schedule: Q01DX009 (ip), vehicle: alkali diluted with saline 112 % of control | dose: 24.0 mg/kg/injection, schedule: Q01DX009 (ip), vehicle: alkali diluted with saline 108 % of control | dose: 36.0 mg/kg/injection, schedule: Q01DX009 (ip), vehicle: alkali diluted with saline 108 % of control | dose: 48.0 mg/kg/injection, schedule: Q01DX009 (ip), vehicle: alkali diluted with saline 118 % of control | dose: 75.0 mg/kg/injection, schedule: Q01DX001 (ip), vehicle: alkali diluted with saline 111 % of control | dose: 150.0 mg/kg/injection, schedule: Q01DX001 (ip), vehicle: alkali diluted with saline 105 % of control

CN(C)C1C2C(CS2(=O)=O)C1(C)C (centres undefined)
inactive: dose: 75.0 mg/kg/injection, schedule: Q01DX001 (ip), vehicle: carboxymethylcellulose (CMC) 100 % of control | dose: 150.0 mg/kg/injection, schedule: Q01DX001 (ip), vehicle: carboxymethylcellulose (CMC) 100 % of control

COc1ccc(-c2c(C)c(C(=O)O)nc(-c3ccc4c(O)c(OC)c5c(c4n3)=NC(C)(C)N=5)c2N)c(O)c1OC
inactive: dose: 4.5 mg/kg/injection, schedule: Q01DX Z (ip), vehicle: water 104 % of control | dose: 6.7 mg/kg/injection, schedule: Q01DX Z (ip), vehicle: water 97 % of control | dose: 10.0 mg/kg/injection, schedule: Q01DX Z (ip), vehicle: water 111 % of control | dose: 15.0 mg/kg/injection, schedule: Q01DX Z (ip), vehicle: water 103 % of control

CC(C)(C)C1=CC(=C(Cl)Cl)C=C(C(C)(C)C)C1=O
inactive: dose: 100.0 mg/kg/injection, schedule: Q04DX003 (ip), vehicle: other 97 % of control | dose: 200.0 mg/kg/injection, schedule: Q04DX003 (ip), vehicle: other 98 % of control | dose: 400.0 mg/kg/injection, schedule: Q04DX003 (ip), vehicle: other 93 % of control

O=C(Nc1ccccc1)N(C1CCCCC1)C1CCCCC1
inactive: [7] 86 % of control | [8] 88 % of control | [9] 89 % of control

COC1OC2COC(c3ccccc3)OC2C2OC(=S)OC12 (centres undefined)
inactive: dose: 25.0 mg/kg/injection, schedule: Q04DX002 (ip), vehicle: Klucel (hydroxypropylcellulose) (HPC) 104 % of control | dose: 50.0 mg/kg/injection, schedule: Q04DX002 (ip), vehicle: Klucel (hydroxypropylcellulose) (HPC) 97 % of control | [1] 102 % of control | [11] 104 % of control | dose: 100.0 mg/kg/injection, schedule: Q04DX002 (ip), vehicle: saline 93 % of control | [10] 98 % of control | dose: 200.0 mg/kg/injection, schedule: Q04DX002 (ip), vehicle: saline 100 % of control | dose: 400.0 mg/kg/injection, schedule: Q01DX001 (ip), vehicle: saline 98 % of control | dose: 400.0 mg/kg/injection, schedule: Q04DX002 (ip), vehicle: saline 107 % of control
